According to ChEMBL document CHEMBL1201862, “PubChem BioAssay data set” (2004):
Active and inactive are the calls of the source. Unless noted, no cut-off for these calls is given here.

How the values were obtained:
[1] = system: HEK293; test: EBV LMP1 TES2 canonical NF-kB signalling blockers – cell-based, HEK293, luciferase, cherry-pick, dose response (AID 588343); format: functional; details: Homo sapiens
[2] = non-specific 3'UTR reporter inhibition in Clone20-Shn3RL – cell-based, Renilla luciferase, cherry-picked, counter-screen for Shn3 inhibitor project, dose response (AID 624133); format: functional
[3] = reduction of Shn3 3'UTR-driven luciferase in osteoblasts – cell-based, Clone20 osteoblasts, firefly luciferase, cherry-picked, dose response (AID 624132); format: functional;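 note: firefly luciferase luminescence from reporter carrying the Shn3 3'UTR in osteoblasts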
[4] = target: T1, Latent membrane protein 1 (Human herpesvirus 4 (strain B95-8), UniProt P03230); test: LMP1 TES1 pathway selectivity over dsRED control – imaging, HEK293T, dual-color eGFP/dsRED, cherry-picks, selectivity assay for LMP1 NF-kB inhibitor project, dose response (AID 588398); format: functional, cell-based
T1 sequence (P03230 whole entry): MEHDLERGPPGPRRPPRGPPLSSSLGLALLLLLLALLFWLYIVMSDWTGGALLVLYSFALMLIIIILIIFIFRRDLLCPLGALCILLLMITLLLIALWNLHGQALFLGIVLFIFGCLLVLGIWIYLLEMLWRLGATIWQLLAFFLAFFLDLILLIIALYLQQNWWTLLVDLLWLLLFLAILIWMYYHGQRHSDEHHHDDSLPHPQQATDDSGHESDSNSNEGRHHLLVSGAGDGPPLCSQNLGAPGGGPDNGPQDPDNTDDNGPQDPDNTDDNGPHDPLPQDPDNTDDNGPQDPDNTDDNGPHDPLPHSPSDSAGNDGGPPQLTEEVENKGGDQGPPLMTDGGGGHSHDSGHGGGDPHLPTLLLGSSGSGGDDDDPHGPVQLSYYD

[5] = Fluorescence-based cell-based high throughput dose response assay for inhibitors of the interaction of nucleotide-binding oligomerization domain containing 2 (NOD2) and the receptor-interacting serine-threonine kinase 2 (RIPK2).; format: functional; details: Homo sapiens
[6] = loss of viability in HepG2 cells – cell-based, CellTiter-Glo, cherry-picked, cytotoxicity control for Shn3 inhibitor project, dose response (AID 624134); format: functional
[7] = target: T2, Small ubiquitin-related modifier 1 (Homo sapiens, UniProt P63165); test: SUMO1 protein interaction blockers, potency – biochemical, fluorescence polarization, uHTS hits, dose response (AID 624382); format: functional; details: read-out: IC50_Mean
[8] = viability inhibitors of stage V gametocytes – luminescence, dose response (AID 1117278); format: functional, cell-based;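 note: gametocytes exposed to compound for 24 hours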
[9] = target: T2, Small ubiquitin-related modifier 1; test: SUMO1 protein-protein binding blockers, potency – biochemical, FRET, dose response (AID 624383); format: functional; details: read-out: IC50_Mean
[10] = viability loss in human Jurkat cells – cell-based, luminescence, cytotoxicity control for P. falciparum gametocyte viability project, dose response (AID 1117277); format: functional;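 note: potency reflects loss of cellular ATP meaning fewer viable cells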
[11] = target: Botulinum neurotoxin type F (Clostridium botulinum, UniProt P30996); test: High-throughput multiplex microsphere dose response for inhibitors of toxin protease, specifically Botulinum neurotoxin light chain F protease, compounds from Powder Set 01.; format: functional, Clostridium botulinum Bf; details: read-out: EC50_MICROM
[12] = target: Lethal factor (Bacillus anthracis, UniProt P15917); test: High-throughput multiplex microsphere dose response for inhibitors of toxin protease, specifically Lethal Factor protease, compounds from Powder Set 01.; format: functional, Bacillus anthracis str. A2012; details: read-out: EC50_MICROM
[13] = target: T3, Botulinum neurotoxin type A (Clostridium botulinum (strain Hall / ATCC 3502 / NCTC 13319 / Type A), UniProt P0DPI1); test: Confirmatory FRET assay using full length substrates for Botulinum neurotoxin light chain A protease, with Powder Set01.; format: functional
[14] = target: T3, Botulinum neurotoxin type A; test: High-throughput multiplex microsphere dose response for inhibitors of toxin protease, specifically Botulinum neurotoxin light chain A protease, compounds from Powder Set 01.; format: functional, Clostridium botulinum A str. ATCC 3502; details: read-out: EC50_MICROM
[15] = target: T4, Sentrin-specific protease 1 (Homo sapiens, UniProt Q9P0U3); test: SENP1 catalytic domain blockers, concentration series – biochemical, kinetic FRET, dose response (AID 651697); format: functional; details: read-out: IC50_Mean
T4 sequence (Q9P0U3 whole entry): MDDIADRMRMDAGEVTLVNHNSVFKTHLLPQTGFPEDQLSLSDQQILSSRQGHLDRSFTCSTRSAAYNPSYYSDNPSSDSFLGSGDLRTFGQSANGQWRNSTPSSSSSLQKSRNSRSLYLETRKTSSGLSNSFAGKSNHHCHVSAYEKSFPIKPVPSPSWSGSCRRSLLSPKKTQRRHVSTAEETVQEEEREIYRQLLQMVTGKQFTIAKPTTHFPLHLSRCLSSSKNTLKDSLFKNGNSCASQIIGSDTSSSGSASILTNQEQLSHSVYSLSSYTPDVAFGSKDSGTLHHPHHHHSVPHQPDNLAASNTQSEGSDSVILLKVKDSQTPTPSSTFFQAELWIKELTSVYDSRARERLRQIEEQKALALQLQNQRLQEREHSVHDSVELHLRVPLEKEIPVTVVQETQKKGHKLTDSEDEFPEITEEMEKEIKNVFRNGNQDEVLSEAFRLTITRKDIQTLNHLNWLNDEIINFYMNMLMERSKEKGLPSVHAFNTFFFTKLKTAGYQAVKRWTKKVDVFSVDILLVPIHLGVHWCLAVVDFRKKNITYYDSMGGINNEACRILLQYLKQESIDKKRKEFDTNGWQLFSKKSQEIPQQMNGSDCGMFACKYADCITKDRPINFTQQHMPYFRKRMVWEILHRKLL

[16] = target: T4, Sentrin-specific protease 1; test: Dose response confirmation of small molecule inhibitors of the catalytic domain of the SUMO protease, SENP1 in a FRET assay.; format: functional; details: read-out: IC50_Mean
[17] = target: T5, Probable nicotinate-nucleotide adenylyltransferase (Staphylococcus aureus (strain N315), UniProt P65502); format: functional, Staphylococcus aureus subsp. aureus N315;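 for IC50 Mean: confirmatory dose-response retesting of NadD inhibitor hits first found in an ultra-high-throughput screen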
[18] = target: T5, Probable nicotinate-nucleotide adenylyltransferase; format: functional, Staphylococcus aureus subsp. aureus N315; details: read-out: IC50_Mean
[19] = system: Cryptococcus neoformans; test: Cryptococcus growth inhibition by alamar blue – cell lysis, cherry-picks, replicate tests, mechanism study for C. neoformans antifungal project, dose response (AID 686999); format: functional, organism-based
[20] = system: Cryptococcus neoformans; test: PubChem AID 686997; format: functional, organism-based
[21] = TNFa-induced NF-kB reporter signal decrease – HEK293 LMP1 reporter cells, dry powder, set 2, selectivity assay for EBV LMP1 NF-kB inhibitor project, dose response (AID 624369); format: functional
[22] = inhibitors of EBV LMP1 NF-kappaB signaling – cell-based, luciferase reporter, luminescence, dry powder, set 2, dose response (AID 624376); format: functional

## O=C1C(=C(c2ccccc2)N2CCOCC2)Cc2ccccc21
[1]
  AC50: 4.87 µM (active)
[2]
  AC50: 5.97 µM (active)
[3]
  AC50: 0.999 µM (active)
[4]
  AC50: 2.98 µM (active)
[5]
  IC50: 1.34 µM (active)
[6]
  AC50: 38.4 µM (active)

## Cc1ccc(N2C(=S)SC3CS(=O)(=O)CC32)cc1 (configuration not stated)
[7]
  IC50: > 66.6 µM (inactive)
[8]
  IC50: > 109 µM (inactive)
[9]
  IC50: 100 µM (inactive)
[10]
  IC50: > 83.2 µM (inactive)

## O=C(Nc1ccc2nc(-c3cccs3)c(-c3cccs3)nc2c1)N1CCCCC1
[11]
  EC50: 4.6 µM (active)
[12]
  EC50: 6.7 µM (active)
[13]
  EC50: 6.9 µM (active)
[14]
  EC50: 6.1 µM (active)

## CCOC(=O)C1=C(C)N=c2sc(=Cc3cc(Cl)c(OCC(=O)O)c(Cl)c3)c(=O)n2C1c1cccc(OC)c1 (configuration not stated)
[15]
  IC50: 19.6 µM (active)
[16]
  IC50: 12.8 µM (active)
[17]
  IC50: 5.18 µM (active)
[18]
  IC50: 19.2 µM (active)

## COC(=O)C1=C(C)N(Cc2ccc(Cl)cc2)C(=S)NC1c1ccc(Br)cc1 (configuration not stated)
[19]
  AC50: 29.1 µM (active)
[20]
  AC50: 27.3 µM (active)

## O=C(C[C@@H]1C[C@H]2c3cc(NS(=O)(=O)c4ccc(F)cc4)ccc3O[C@H]2[C@H](CO)O1)NCc1ccc(Oc2ccccc2)cc1
[21]
  AbsAC35: 42.88 µM
[22]
  AbsAC35: 65.62 µM
